Laboratory results published in patent publication US4276298A, “2-Aryl-1,2-benzisothiazolinone-1,1-dioxides and their use as selective protease inhibitors” (Merck & Co., Inc., priority 1979, dated 1981).
Read-outs that look alike come from different tables or passages of the source.

What was measured:
[1] = target: T1, Chymotrypsin (Bos taurus, UniProt P00766); experiment: Chymotrypsin inhibition (Ac-AAPPhN hydrolysis, 410 mμ); format: biochemical, bovine
T1 construct: purchased Worthington
Procedure: a-Chymotrypsin (Worthington, 3X crystallized, lyophilized) at 100 μg/ml in 0.001 M HCl (1 mg/ml by wt. diluted 1:10)
0.2 mM N-Acetyl-Alanyl-Alanyl-Prolyl-Phenylalanyl-p-nitroanilide=Ac-AAPPhN.To prepare substrate, the solid (M.W. 566) was first dissolved in 10.0 ml DMSO. Buffer at pH 7.5 was then added to a final volume of 100 ml.
(§1) Inhibitors to be tested dissolved in DMSO just before use.
To 1.0 ml of 0.2 mM Ac-AAPPhN in a cuvette, 0.01-0.05 ml of DMSO with or without inhibitor was added. After mixing, a measurement was taken at 410 mμ to detect any spontaneous hydrolysis due to the presence of test compound. 0.01 ml of α-chymotrypsin solution was then added and the ΔOD/min at […] was measured and recordeed. A Gilford 240 240 spectrophotometer was used.
Results were obtained as % inhibition produced by test compound as represented by the % decrease in ΔOD/min of a control. The ID50 was then derived from the % inhibition curve.

[2] = target: T2, Human PMN Elastase (Homo sapiens, UniProt P08246); experiment: Human PMN elastase inhibition (Boc-AAPAN hydrolysis, 410 mμ); format: biochemical; details: 0.2 mM Boc-AAPAN, pH 7.5, crude human PMN extract; read-out: ID50 Human PMN Elastase (converted)
T2 construct: Crude extract of human polymorphonuclear leukocytes (PMN) containing elastase activity; from tissue; host or cells: human polymorphonuclear leukocytes (crude extract)
T2 sequence (P08246 30-267): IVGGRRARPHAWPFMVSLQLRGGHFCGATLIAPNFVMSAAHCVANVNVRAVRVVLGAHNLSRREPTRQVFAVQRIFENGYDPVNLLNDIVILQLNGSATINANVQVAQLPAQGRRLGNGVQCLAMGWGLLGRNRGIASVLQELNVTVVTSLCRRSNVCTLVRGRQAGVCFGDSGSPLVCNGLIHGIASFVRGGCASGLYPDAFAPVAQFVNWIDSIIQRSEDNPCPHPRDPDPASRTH
Procedure: N-tris (hydroxymethyl) methyl-2-aminoethane sulfonic acid
0.2 mM N-t-Box-Alanyl-Alanyl-Prolyl-Alanine-p-nitroanilide=Boc-AAPAN
To prepare substrate, the solid (m.w. 550) was first dissolved in 10.0 ml. DMSO. Buffer at pH 7.5 was then added to a final volume of 100 ml.
Crude extract of human polymorphonuclear leukocytes (PMN) containing elastase activity.
as §1
To 1.0 ml. of 0.2 mM Box-AAPAN in a cuvette, 0.01-0.1 ml. of DMSO with or without inhibitor was added. After mixing, a measurement was taken at 410 mμ to detect any spontaneous hydrolysis due to presence of test compound. 0.05 ml. of PMN extract was then added and the ΔOD/min at 410 mμ was measured and recorded. A Gilford 240 or Beckman DB-G spectrophotomer was used.
Results were obtained as % inhibition produced by test compound as represented by the % decrease in ΔOD/min. of a control. The ID50 was then derived from the % inhibition curve.
The elastase activity in the crude PMN extract may vary from one preparation to another. A control of each new batch is run and the volume added in the assay procedure is adjusted according to activity.

[3] = target: T3, Human PMN Cathepsin G (Homo sapiens, UniProt P08311); experiment: Human PMN cathepsin G inhibition (BTNP hydrolysis, 347.5 mμ); format: biochemical; details: 0.2 mM BTNP, pH 6.5, purified human PMN extract; read-out: ID50 Human PMN Cathepsin G (converted)
T3 construct: Purified extract of human polymorphonuclear leukocytes (PMN) containing chymotrypsin-like activity; from tissue; host or cells: human polymorphonuclear leukocytes (purified extract)
T3 sequence (P08311 21-255): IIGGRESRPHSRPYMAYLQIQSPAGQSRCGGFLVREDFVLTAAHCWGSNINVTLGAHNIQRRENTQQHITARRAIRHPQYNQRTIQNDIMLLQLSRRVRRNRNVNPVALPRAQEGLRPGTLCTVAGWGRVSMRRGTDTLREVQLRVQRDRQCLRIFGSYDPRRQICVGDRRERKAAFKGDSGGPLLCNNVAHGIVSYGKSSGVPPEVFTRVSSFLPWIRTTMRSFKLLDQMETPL
Procedure: 0.05 M PIPES buffer [piperazine-N,N'-bis(2-ethanesulfonic acid), mono-sodium salt, monohydrate], pH 6.5.
0.2 mM t-Box-L-Tyrosine-p-Nitrophenyl ester=BTNP
Purified extract of human polymorphonuclear leukocytes (PMN) containing chymotrypsin-like activity.
To 1.0 ml of 0.2 mM BTNP in a cuvette, 0.01-0.1 ml of DMSO with or without inhibitor was added. After mixing, a measurement was taken at 347.5 mμ to detect any spontaneous hydrolysis due to the presence of test compound. 0.01 ml of PMN extract was then added and the ΔOD/min at 347.5 mμ was measured and recorded. A Gilford 240 or Beckman DB-G spectrophotometer was used.
To prepare substrate, 8.0 mg of solid (m.w. 402) was first dissolved in 10.0 ml DMSO. Buffer at pH 6.5 was then added to a final volume of 100 ml. Final DMSO concentration was 10%. Substrate prepared in this manner is stable for 3-4 hours at room temperature.
All activites were tested for reactivity with nitrophenol. The test is invalid if the test compound reacts with nitrophenol.

[4] = target: T4, Porcine Pancreatic Elastase (Sus scrofa, UniProt P00772); experiment: Porcine pancreatic elastase inhibition (Boc-AAPAN hydrolysis, 410 mμ); format: biochemical; details: 0.2 mM Boc-AAPAN, pH 7.5, purified PPE; read-out: ID50 Porcine Pancreatic Elastase (converted)
T4 construct: purchased Worthington
T4 sequence (P00772 27-266): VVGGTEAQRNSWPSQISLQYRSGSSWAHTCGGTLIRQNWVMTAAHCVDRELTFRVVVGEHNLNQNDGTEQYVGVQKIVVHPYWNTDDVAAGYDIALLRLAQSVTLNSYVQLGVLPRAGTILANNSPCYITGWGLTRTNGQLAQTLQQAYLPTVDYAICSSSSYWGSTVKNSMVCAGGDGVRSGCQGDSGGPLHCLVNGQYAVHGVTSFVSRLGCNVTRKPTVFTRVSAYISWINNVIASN
Procedure: PORCINE PANCREATIC ELASTASE:
Solution of purified porcine pancreatic elastase (PPE) (Worthington)
To 1.0 ml. of 0.2 mM Box-AAPAN in a cuvette, 0.01-0.1 ml. of DMSO with or without inhibitor was added. After mixing, a measurement was taken at 410 mμ to detect any spontaneous hydrolysis due to presence of test compound. 0.05 ml. of PPE extract was then added and the ΔOD/min at 410 m° was measured and recorded. A Gilford 240 or Beckman DB-G spectrophotometer was used.
The elastase activity in the crude PPE extract may vary from one preparation to another. A control of each new batch is run, and the volume added in the assay procedure is adjusted according to activity.

[5] = target: T5, Trypsin (Bos taurus, UniProt P00760); experiment: Trypsin inhibition (BAPA hydrolysis, 410 mμ); format: biochemical, bovine
T5 construct: purchased Worthington TRL
T5 sequence (P00760 24-246): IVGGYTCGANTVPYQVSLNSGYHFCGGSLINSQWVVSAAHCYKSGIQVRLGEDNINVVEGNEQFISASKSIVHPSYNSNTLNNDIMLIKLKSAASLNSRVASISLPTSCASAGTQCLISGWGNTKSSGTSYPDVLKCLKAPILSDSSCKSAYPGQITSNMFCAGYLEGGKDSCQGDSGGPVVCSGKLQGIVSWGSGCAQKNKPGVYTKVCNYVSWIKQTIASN
Procedure: Trypsin (Worthington-TRL, 2X crystallized, lyophilized) at 1.0 mg/ml by wt. in 0.001 M HCl.
1.0 mN N-Benzoyl-DL-Arginine-p-nitroanilide (Bachem)=BAPA. The substrate was prepared by dissolving solid (M.W. 435) in 10 ml. DMSO. Buffer, at pH 7.5, was added to a total volume of 100 ml.
Inhibitors dissolved in DMSO just before use.
To 1.0 ml of 1.0 mM BAPA in a cuvette, 0.01-0.05 ml of DMSO with or without inhibitor was added. After mixing, a measurement was taken at 410 mμ to detect any spontaneous hydrolysis due to the presence of test compound. 0.01 ml of trypsin solution was then added and the ΔOD/min at 410 mμ was measured and recorded. A Gilford 240 spectrophotometer was used.

[6] = system: papain; details: cited from earlier work
[7] = system: Papain induced emphysema; details: hamster; cited from earlier work
[8] = system: trypsin, chymotrypsin, plasmin, kallikrein, elastase, and thrombin; details: glycoprotein in human serum; cited from earlier work
[9] = 0.2 mM Ac-AAPPhN, pH 7.5, α-chymotrypsin, read-out: ID50 Chymotrypsin (converted)
[10] = 1.0 mM BAPA, pH 7.5, read-out: ID50 Trypsin (converted)

Compound	IC50 [1, 9] [µM]	IC50 [2] [µM]	IC50 [3] [µM]	IC50 [4] [µM]	IC50 [5] [µM]	IC50 [5, 10] [µM]	inhibition of papain [6]	inhibition of papain induced emphysema [7]	inhibitory spectrum [8]	IC50 [1] [µM]
N#Cc1ccc(N2C(=O)c3ccccc3S2(=O)=O)nc1	59.6	10.5								
N#Cc1cc([N+](=O)[O-])ccc1N1C(=O)c2ccccc2S1(=O)=O	0.607	3.04	45.6	60.7	60.7					
O=C(c1ccco1)N1C(=O)c2ccccc2S1(=O)=O [reference compound]	0.0721	0.361		0.721		1.8				
α1 -Antitrypsin: a glycoprotein in human serum							not inhibited	inhibited	wide inhibitory spectrum	
N#Cc1ccc(N2C(=O)c3ccccc3S2(=O)=O)c(C#N)c1	3.23	4.85	162	162		162				
C=CC(=O)N1C(=O)c2ccccc2S1(=O)=O [reference compound]	0.295	0.422	4.22	0.843		1.69				
O=C1c2ccccc2S(=O)(=O)N1c1ncccc1[N+](=O)[O-]	0.655	1.64		65.5		65.5				
O=C1c2ccccc2S(=O)(=O)N1c1ccc([N+](=O)[O-])cc1[N+](=O)[O-]		2.86		143	143					1.43
O=C1c2ccccc2S(=O)(=O)N1c1c(F)c(F)c(F)c(F)c1F		2.86		143	143					143
O=C1c2ccccc2S(=O)(=O)N1c1ccc([N+](=O)[O-])cc1 [reference compound]		164		329	329					329
O=C(c1cccs1)N1C(=O)c2ccccc2S1(=O)=O [reference compound]		0.341		0.682		0.0682				0.682
CCC(CC)C(=O)N1C(=O)c2ccccc2S1(=O)=O [reference compound]	0.142	0.355		1.07		3.55				
